According to patent publication US12103951B2, “Use of CGRP receptor antagonists in neuroprotection and neurological disorders” (priority 2016, dated 2024):
“Also recorded” adds a separate entry of the source.

Test system: optic nerve axons
Assay: Rat laser glaucoma model: total number of optic nerve axons (stereology)
Assay type: in vivo, Wistar rats
Settings: IP daily for two weeks; for total number of optic nerve axons, lasered vs contralateral control eyes: paired sample t-test, P>0.05
Description: In this study, Wistar rats (n=12) were used for the experiments. The neuroprotective properties of compounds were investigated in a rat laser model of glaucoma. Rats were divided into two groups of six rats each. One group served as a placebo control receiving vehicle (NaCl) injections, and the other was treated with a peptide CGRP receptor antagonist (SEQ ID NO: 1). For all 12 rats, the contralateral, untreated eye served as a naïve undiseased control. The vehicle control and test compound (20 mg/kg) were administered systemically (IP) daily for the whole follow-up period of two weeks. The animals were sacrificed using transcardial perfusion. The retinal whole-mounts were then immuno-stained against retinal ganglion cell (RGC) marker Brn3a and astrocytic marker GFAP (glial fibrillary acidic protein). The number of Brn3a positive profiles was manually counted from retinal images taken from central and peripheral parts of retina. The total number of GFAP-immunoreactive cells (retinal astrocytes) was estimated using stereology. The total number of RGC axons in the optic nerve was estimated using stereology.
The rat glaucoma model was induced unilaterally by laser photocoagulation of episcleral veins as previously described (Kalesnykas et al., 2007). Anesthesia was performed using sodium pentobarbital (30 mg/kg). […]
2. Quantification of optic nerve axons using stereology. […]
After the optic nerves were post-fixed in 4% PFA (in 0.1M phosphate buffer, pH 7.4) solution, they were placed in 1% osmium, dehydrated in ascending alcohol concentration and placed in 1% uranyl acetate in 100% ethanol for 1 hour (Cone et al., 2012). […] Briefly, axons were counted manually using the Stereo Investigator software (MicroBrightField, VT, USA). […]
Quantitative data was graphed, analyzed and presented as mean±standard deviation (SD) or standard error of mean (SEM). Parametric data was analyzed using paired-samples T-test (the contralateral eye of the same animal serves as control). Non-parametric data was analyzed using Mann-Whitney U test (comparison of 2 groups) or Wilcoxon paired-samples T-test. […]

NH2-Ala-Cys-Asp-Thr-Ala-Ala-Cys-Val-Leu-Gly-Arg-Leu-Ser-Gln-Glu-Leu-His-Arg-Leu-Gln-Thr-Tyr-Pro-Arg-Thr-Asn-Val-Gly-Ser-Lys-Ala-Phe-NH2 (H-ACDTAACVLGRLSQELHRLQTYPRTNVGSKAF-NH2; ends and bridges not checked) [SEQ ID NO: 1, peptide CGRP receptor antagonist]
total number of optic nerve axons, increase vs optic nerves from contralateral control eyes (increase): 1.7% | total number of optic nerve axons, lasered vs contralateral control eyes: did not differ significantly; also recorded: smallest decrease in the total number of axons | total number of optic nerve axons, lasered vs contralateral control eyes (listed as CGRP antagonist): slight increase
